This passage reports IC50 results from patent US10689378B2, “Triazolopyridine compounds and uses thereof” (Novartis AG, priority 2016, dated 2020).

Where two headings read alike, the source gives them in different places.

The target of one experiment is T1, EED (1-441)-His protein (Homo sapiens, UniProt O75530).
T1 construct: 30 nM EED (1-441)-His protein
The experiment can be described thus: EED-H3K27Me3 peptide competition binding assay by AlphaScreen. In short, it runs like this:
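Serially diluted compound (12 points, 3-fold) incubated 20 min with 30 nM EED(1-441)-His and 15 nM biotin-H3K27Me3(19-33) peptide in 25 mM HEPES pH 8, 0.02% Tween-20, 0.5% BSA. Ni-chelate acceptor/streptavidin donor beads (10 μg/mL each) added, 1 h rt dark; 615 nm emission normalized to controls, dose-response fit for IC50.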
Background: In Alpha technology, singlet oxygen from a donor bead excites a nearby acceptor bead.

In experiment [1] the target is wild type PRC2 (wtPRC2) complex (Homo sapiens, UniProt O75530). The experiment in a line: EED LC-MS assay (SAH production by PRC2). The following applies: read-out: (b) IC50, EED LC-MS Qualified. The format is biochemical. The protocol:
Compounds of the present invention were assessed for their ability to inhibit PRC2 activity in a pentameric complex of EZH2, SUZ12, EED, Rbap48 and AEBP in biochemical assays. The ability of compounds of the present invention to inhibit cellular activity of PRC2 was assessed by analysing histone H3 lysine 27 methylation in human cell lines. The ability of compounds of the present invention to inhibit cancers was derived from their ability to modulate activity in human cancer cell lines bearing specific dependence to PRC2 activity to maintain cancerous growth.
Representative compounds of the present invention were serially and separately diluted 3-fold in DMSO to obtain a total of eight or twelve concentrations. Then the test compounds at each concentration (120 nL of each) were transferred by Mosquito into a 384-well Perkin Elmer ProxiPlate 384 plus plates. Solutions (6 μL) of 24 nM the wild type PRC2 (wtPRC2) complex and 2 μM SAM in reaction buffer (20 mM Tris, pH 8.0, 0.1% BSA, 0.01% Triton, 0.5 mM DTT) were added to the wells that were then incubated with the test compound for 20 min. A 6 μL solution of 3 μM of the peptide substrate H3K27Me0 (histone H3[21-44]-biotin) in reaction buffer was added to initiate each reaction. The final components in the reaction solution include 12 nM wtPRC2 complex, 1 μM SAM, and 1.5 μM H3K27me0 peptide with varying concentration of the compounds. A positive control consisted of the enzyme, 1 μM SAM and 1.5 μM substrate in the absence of the test compound, and a negative control consisted of 1 μM SAM and 1.5 μM substrate only. Each reaction was incubated at rt for 120 min, then stopped by addition of 3 μL per of quench solution (2.5% TFA with 320 nM d4-SAH). The reaction mixture was centrifuged (Eppendorf centrifuge 5810, Rotor A-4-62) for 2 min at 2000 rpm and read on an API 4000 triple quadrupole mass spec with Turbulon Spray (Applied Biosystem) coupled with Prominence UFLC (Shimadzu). The levels of SAH production were then normalized based on the values coming from the positive and negative controls to give percent enzyme activities. The data were then fit to a dose response equation using the program Helios to get the IC50 values of the test compound.

In experiment [2] the test system is H3K27 methylation in G401 cell. The experiment in a line: ELISA (H3K27 methylation) assay in G401 cells. The following applies: Homo sapiens. It counts as cell-based, human. In short, it runs like this:
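G401 cells treated 48 h with 3-fold dilutions (8 or 12 points, top 20 μM). Acid-extracted histones probed by ELISA for H3K27me3 or H3K27me2 with ECL readout, normalized to total H3. Percent inhibition versus DMSO fitted to dose-response curve for IC50.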

Where [3] appears, read: read-out: (a) IC50, EED Alphascreen binding Qualified.
[4] abbreviates: G-401, read-out: (c) IC50, ELISA Qualified.
The mark [5] stands for this setting: EED-H3K27Me3 peptide competition, AlphaScreen, read-out: (a) IC50 EED Alphascreen binding Qualified.
Where [6] appears, read: G-401, H3K27 methylation ELISA, read-out: (c) IC50 ELISA Qualified.
[7] abbreviates: read-out: (a) IC50 EED Alphascreen binding Qualified.
Setting [8] is: G-401, read-out: (c) IC50 ELISA Qualified.

T1 sequence (O75530 whole entry): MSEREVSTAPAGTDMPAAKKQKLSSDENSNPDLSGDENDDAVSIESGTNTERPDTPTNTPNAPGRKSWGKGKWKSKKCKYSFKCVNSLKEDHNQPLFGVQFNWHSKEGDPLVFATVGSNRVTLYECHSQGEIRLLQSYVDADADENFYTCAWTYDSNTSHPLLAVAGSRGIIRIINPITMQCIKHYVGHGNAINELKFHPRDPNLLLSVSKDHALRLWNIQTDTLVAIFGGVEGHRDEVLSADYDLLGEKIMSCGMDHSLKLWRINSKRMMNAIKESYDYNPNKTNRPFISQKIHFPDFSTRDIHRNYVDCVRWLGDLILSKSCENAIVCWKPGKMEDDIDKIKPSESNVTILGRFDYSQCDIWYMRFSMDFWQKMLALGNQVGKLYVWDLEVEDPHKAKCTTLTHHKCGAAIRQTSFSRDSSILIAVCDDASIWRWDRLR
wild type PRC2 (wtPRC2) complex, sequence (O75530 whole entry): as above
wild type PRC2 (wtPRC2) complex, sequence (Q15910 whole entry partner): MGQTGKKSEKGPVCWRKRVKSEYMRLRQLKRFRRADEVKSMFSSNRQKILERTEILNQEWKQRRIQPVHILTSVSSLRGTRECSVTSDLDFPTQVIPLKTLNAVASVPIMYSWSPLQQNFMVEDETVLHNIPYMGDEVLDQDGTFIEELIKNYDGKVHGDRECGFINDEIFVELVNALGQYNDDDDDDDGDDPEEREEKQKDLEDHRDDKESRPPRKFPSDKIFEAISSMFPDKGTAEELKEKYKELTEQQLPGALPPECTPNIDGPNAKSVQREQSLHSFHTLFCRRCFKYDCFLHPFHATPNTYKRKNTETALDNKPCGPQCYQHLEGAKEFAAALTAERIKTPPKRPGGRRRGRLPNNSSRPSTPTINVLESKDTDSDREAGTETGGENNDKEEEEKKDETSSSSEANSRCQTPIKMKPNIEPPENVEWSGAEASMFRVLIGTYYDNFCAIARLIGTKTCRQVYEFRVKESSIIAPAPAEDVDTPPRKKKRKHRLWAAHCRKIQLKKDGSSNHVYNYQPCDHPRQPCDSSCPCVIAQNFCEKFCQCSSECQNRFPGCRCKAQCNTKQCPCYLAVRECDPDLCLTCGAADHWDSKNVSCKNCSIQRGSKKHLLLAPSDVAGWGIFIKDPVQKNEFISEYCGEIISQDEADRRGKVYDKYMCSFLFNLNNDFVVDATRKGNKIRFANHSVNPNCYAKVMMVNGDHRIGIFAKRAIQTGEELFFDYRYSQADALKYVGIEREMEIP
wild type PRC2 (wtPRC2) complex, sequence (Q15022 whole entry partner): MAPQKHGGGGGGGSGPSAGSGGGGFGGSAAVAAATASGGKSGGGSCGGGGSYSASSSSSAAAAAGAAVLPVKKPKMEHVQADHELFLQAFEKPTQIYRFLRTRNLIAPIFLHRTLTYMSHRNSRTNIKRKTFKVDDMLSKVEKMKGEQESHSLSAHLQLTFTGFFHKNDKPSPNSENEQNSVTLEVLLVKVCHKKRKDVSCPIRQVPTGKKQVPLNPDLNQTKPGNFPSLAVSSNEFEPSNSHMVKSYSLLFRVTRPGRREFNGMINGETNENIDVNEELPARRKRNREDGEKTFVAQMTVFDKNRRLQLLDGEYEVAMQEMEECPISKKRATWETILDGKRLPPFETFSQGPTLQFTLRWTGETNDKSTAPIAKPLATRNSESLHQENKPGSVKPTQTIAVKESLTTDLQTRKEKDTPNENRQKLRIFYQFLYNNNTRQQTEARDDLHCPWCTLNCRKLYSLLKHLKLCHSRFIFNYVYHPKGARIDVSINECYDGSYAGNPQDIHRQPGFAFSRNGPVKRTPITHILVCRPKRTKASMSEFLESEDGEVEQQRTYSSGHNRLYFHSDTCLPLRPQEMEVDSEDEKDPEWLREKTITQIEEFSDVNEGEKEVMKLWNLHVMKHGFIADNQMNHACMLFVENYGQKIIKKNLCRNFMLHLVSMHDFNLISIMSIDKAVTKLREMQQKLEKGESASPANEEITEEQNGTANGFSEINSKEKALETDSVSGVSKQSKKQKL
wild type PRC2 (wtPRC2) complex, sequence (Q09028 whole entry partner): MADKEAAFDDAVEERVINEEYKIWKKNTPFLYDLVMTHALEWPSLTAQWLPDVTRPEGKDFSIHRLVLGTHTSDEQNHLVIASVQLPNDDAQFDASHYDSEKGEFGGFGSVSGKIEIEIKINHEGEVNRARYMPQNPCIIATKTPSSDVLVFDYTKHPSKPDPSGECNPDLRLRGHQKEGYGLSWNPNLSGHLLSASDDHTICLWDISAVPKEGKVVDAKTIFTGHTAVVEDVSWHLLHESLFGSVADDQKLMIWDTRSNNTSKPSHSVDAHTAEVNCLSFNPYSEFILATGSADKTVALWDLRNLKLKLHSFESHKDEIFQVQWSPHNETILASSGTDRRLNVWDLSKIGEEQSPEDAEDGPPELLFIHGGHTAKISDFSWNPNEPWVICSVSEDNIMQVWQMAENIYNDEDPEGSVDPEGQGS
wild type PRC2 (wtPRC2) complex, sequence (Q6ZN18 whole entry partner): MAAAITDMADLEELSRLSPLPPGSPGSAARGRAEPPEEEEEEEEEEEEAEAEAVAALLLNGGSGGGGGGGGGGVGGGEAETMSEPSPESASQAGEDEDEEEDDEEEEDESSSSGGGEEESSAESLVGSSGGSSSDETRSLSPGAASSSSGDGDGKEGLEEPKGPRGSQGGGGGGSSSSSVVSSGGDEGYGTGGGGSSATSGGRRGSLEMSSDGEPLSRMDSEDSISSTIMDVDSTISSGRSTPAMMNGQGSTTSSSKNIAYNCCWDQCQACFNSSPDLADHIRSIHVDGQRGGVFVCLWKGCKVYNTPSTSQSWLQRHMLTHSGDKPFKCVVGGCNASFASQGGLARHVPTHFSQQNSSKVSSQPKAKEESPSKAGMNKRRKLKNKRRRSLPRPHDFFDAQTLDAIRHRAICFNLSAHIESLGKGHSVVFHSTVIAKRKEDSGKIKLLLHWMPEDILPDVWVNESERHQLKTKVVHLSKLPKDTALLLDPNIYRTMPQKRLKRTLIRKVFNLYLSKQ

Consider `COc1cccc(F)c1CNc1ccc(-c2ccnn2C)c2nncn12` [Example 1, N-(2-Fluoro-6-methoxybenzyl)-8-(1-methyl-1H-pyrazol-5-yl)-[1,2,4]triazolo[4,3-a]pyridin-5-amine], for which the half-maximal inhibitory concentration (IC50) on EED (1-441)-His protein (setting [3]) was 27.7 nM; in experiment [1] it was 11.2 nM; in experiment [2] (setting [4]) it was 18.1 nM.
For `COc1cccc(F)c1CNc1ccc(-c2cccnc2C)c2nncn12` [Example 2, N-(2-Fluoro-6-methoxybenzyl)-8-(2-methylpyridin-3-yl)-[1,2,4]triazolo[4,3-a]pyridin-5-amine] the same measures were 10.9 nM, 18.8 nM and 8.7 nM.
For `COc1cccc(F)c1CNc1ccc(-c2cnc(C)nc2C)c2nncn12` [Example 3, 8-(2,4-Dimethylpyrimidin-5-yl)-N-(2-fluoro-6-methoxybenzyl)-[1,2,4]triazolo[4,3-a]pyridin-5-amine], in that order: 17.5 nM, 23.6 nM and 10.7 nM.
Regarding `COc1cccc(F)c1CNc1ccc(-c2cnc(CC(C)C)nc2C)c2nncn12` [Example 4, N-(2-Fluoro-6-methoxybenzyl)-8-(2-isobutyl-4-methylpyrimidin-5-yl)-[1,2,4]triazolo[4,3a]-pyridin-5-amine], the concentration for half-maximal inhibition (IC50) on EED (1-441)-His protein (setting [3]) was 8.6 nM; in experiment [1], 6.6 nM; in experiment [2] (setting [4]), 5.7 nM.
On to `COc1cccc(F)c1CNc1ccc(-c2ccccc2C(C)C)c2nncn12` [Example 257, N-(2-fluoro-6-methoxybenzyl)-8-(2-isopropylphenyl)-[1,2,4]triazolo[4,3-a] pyridin-5-amine], for which the figures for the IC50 (at EED (1-441)-His protein (setting [5]); in experiment [2] (setting [6])) were 906 nM and at least 62500 nM, respectively.
`COc1cccc(F)c1CNc1ccc(-c2cnc(N3CCOCC3)nc2C)c2nncn12` [Example 261, N-(2-fluoro-6-methoxybenzyl)-8-(4-methyl-2-morpholinopyrimidin-5-yl)-[1,2,4]triazolo[4,3-a]pyridin-5-amine]: the figures for the IC50 (at EED (1-441)-His protein (setting [5]); in experiment [2] (setting [6])) were 17.6 nM and 7.8 nM, respectively.
For `COc1cccc(F)c1CNc1ccc(-c2cnc(N3CCOCC3)cc2C)c2nncn12` [Example 262, N-(2-fluoro-6-methoxybenzyl)-8-(4-methyl-6-morpholinopyridin-3-yl)-[1,2,4]triazolo[4,3-a]pyridin-5-amine] the same measures were 12.4 nM and 15.6 nM.
For `COc1cccc(F)c1CNc1ccc(-c2ccc(Cl)nc2C)c2nncn12` [Example 263, 8-(6-chloro-2-methylpyridin-3-yl)-N-(2-fluoro-6-methoxybenzyl)-[1,2,4]triazolo[4,3-a] pyridin-5-amine], in that order: 16.9 nM and 15.4 nM.
For `COc1cccc(F)c1CNc1ccc(-c2ccnc(C(F)(F)F)c2)c2nncn12` [Example 264, N-(2-fluoro-6-methoxybenzyl)-8-(2-(trifluoromethyl)pyridin-4-yl)-[1,2,4]triazolo[4,3-a] pyridin-5-amine], in that order: 14.8 nM and 14.7 nM.
As for `COc1cc(CNc2ccc(-c3cccnc3C)c3nncn23)c(F)cc1F` [Example 285, N-(2,4-difluoro-5-methoxybenzyl)-8-(2-methylpyridin-3-yl)-[1,2,4]triazolo[4,3-a] pyridin-5-amine], the IC50 at EED (1-441)-His protein (setting [5]) is 176 nM; in experiment [2] (setting [6]), 112 nM.
Consider `COc1ccc(F)c(F)c1CNc1ccc(-c2cccnc2C)c2nncn12` [Example 286, N-(2,3-difluoro-6-methoxybenzyl)-8-(2-methylpyridin-3-yl)-[1,2,4]triazolo[4,3-a] pyridin-5-amine], for which the concentration for half-maximal inhibition (IC50) was 112 nM on EED (1-441)-His protein (setting [5]) and 115 nM in experiment [2] (setting [6]).
For `COc1ccc(F)c(CNc2ccc(-c3cccnc3C)c3nncn23)c1` [Example 291, N-(2-fluoro-5-methoxybenzyl)-8-(2-methylpyridin-3-yl)-[1,2,4]triazolo[4,3-a] pyridin-5-amine] the same measures were 184 nM and 84.9 nM.
For `CCc1ccncc1-c1ccc(NCc2c(F)cc(F)cc2OC)n2cnnc12` [Example 307, N-(2,4-difluoro-6-methoxybenzyl)-8-(4-ethylpyridin-3-yl)-[1,2,4]triazolo[4,3-a] pyridin-5-amine] the same measures were 205 nM and 226 nM.
For `COc1cccc(F)c1CNc1c(F)cc(-c2cccnc2C)c2nncn12` [Example 311, 6-fluoro-N-(2-fluoro-6-methoxybenzyl)-4-(2-methylpyridin-3-yl)-[1,2,4] triazolo[4,3-a]pyridin-7-amine] the same measures were 420 nM and 833 nM.
For `COc1cc(C)c(-c2ccc(NCc3c(F)cc(F)cc3OC)n3cnnc23)cn1` [Example 318, N-(2,4-difluoro-6-methoxybenzyl)-8-(6-methoxy-4-methylpyridin-3-yl)-[1,2,4] triazolo[4,3-a]pyridin-5-amine], the IC50 (at EED (1-441)-His protein (setting [5]); in experiment [2] (setting [6])) was 71.6 nM each time.
Take `COc1cc(F)cc(F)c1CNc1c(F)cc(-c2cccnc2C)c2nncn12` [Example 320, N-(2,4-difluoro-6-methoxybenzyl)-6-fluoro-8-(2-methylpyridin-3-yl)-[1,2,4]triazolo [4,3-a]pyridin-5-amine]: the values for the IC50 (at EED (1-441)-His protein (setting [5]); in experiment [2] (setting [6])) were 425 nM and 434 nM, respectively.
For `COc1cc(F)cc(F)c1CNc1c(F)cc(-c2cnc(C)nc2C)c2nncn12` [Example 321, N-(2,4-difluoro-6-methoxybenzyl)-8-(2,4-dimethylpyrimidin-5-yl)-6-fluoro-[1,2,4]triazolo[4,3-a]pyridin-5-amine] the same measures were 2660 nM and 1530 nM.
As to `Cc1cccc(F)c1CNc1ccc(-c2cccnc2C)c2nncn12` [Example 331, N-(2-fluoro-6-methylbenzyl)-8-(2-methylpyridin-3-yl)-[1,2,4]triazolo[4,3-a] pyridin-5-amine], the IC50 was determined as 459 nM on EED (1-441)-His protein (setting [5]) and 519 nM in experiment [2] (setting [6]).
For the compound `COc1cccc(F)c1CNc1ccc(-c2c(C)ccnc2C)c2nncn12` [Example 346, 8-(2,4-dimethylpyridin-3-yl)-N-(2-fluoro-6-methoxybenzyl)-[1,2,4]triazolo[4,3-a] pyridin-5-amine], the results for the IC50 (on EED (1-441)-His protein (setting [7]); in experiment [2] (setting [8])) were 142 nM and 260 nM, respectively.
For `COc1cccnc1CNc1ccc(-c2cccnc2C)c2nncn12` [Example 347, N-((3-methoxypyridin-2-yl)methyl)-8-(2-methylpyridin-3-yl)-[1,2,4]triazolo[4,3-a] pyridin-5-amine] the same measures were 791 nM and 771 nM.
For `COc1cnccc1CNc1ccc(-c2cccnc2C)c2nncn12` [Example 360, N-((3-methoxypyridin-4-yl)methyl)-8-(2-methylpyridin-3-yl)-[1,2,4]triazolo[4,3-a] pyridin-5-amine] the same measures were 4090 nM and 3040 nM.
Regarding `COc1cccc(CNc2ccc(-c3cccnc3C)c3nncn23)n1` [Example 364, N-((6-methoxypyridin-2-yl)methyl)-8-(2-methylpyridin-3-yl)-[1,2,4]triazolo[4,3-a] pyridin-5-amine], the IC50 on EED (1-441)-His protein (setting [7]) was found to be 120 nM; in experiment [2] (setting [8]), 80.6 nM.
For `COc1cccc(F)c1CNc1ccc(-c2cn(C)c(C)n2)c2nncn12` [Example 365, 8-(1,2-dimethyl-1H-imidazol-4-yl)-N-(2-fluoro-6-methoxybenzyl)-[1,2,4] triazolo[4,3-a]pyridin-5-amine] the same measures were 197 nM and 278 nM.
`COc1nccc(N)c1CNc1ccc(-c2cccnc2C)c2nncn12` [Example 371, N-((4-amino-2-methoxypyridin-3-yl)methyl)-8-(2-methylpyridin-3-yl)-[1,2,4] triazolo[4,3-a]pyridin-5-amine]: the values for the half-inhibitory concentration (IC50) (at EED (1-441)-His protein (setting [7]); in experiment [2] (setting [8])) were 102 nM and 92.7 nM, respectively.

For orientation: IC50 means the concentration at which inhibition is half-maximal.
